This passage reports IC50, inhibition and viability results from ChEMBL document CHEMBL4004884, “Sesquiterpene derivatives from marine sponge Smenospongia cerebriformis and their anti-inflammatory activity” (Bioorg Med Chem Lett, 2017).

Usually IC50 stands for the point on the concentration scale where inhibition reaches its midpoint. Usually inhibition stands for the percentage by which the read-out fell short of the control.

Data set [1] deals with BV-2. The experiment in a line: Antiinflammatory activity in mouse BV2 cells assessed as inhibition of LPS-stimulated nitric oxide production by Griess assay. Type of data set: functional, cell-based. For orientation: The Griess reaction detects nitrite, a stable product of nitric oxide.
The subject of data set [2] is BV-2. The experiment in a line: Antiinflammatory activity in mouse BV2 cells assessed as inhibition of LPS-stimulated nitric oxide production at 40 uM by Griess assay relative to control. Type of data set: functional.
Data set [3] is described as follows: Cytotoxicity against mouse BV2 cells assessed as cell viability at 40 uM relative to control. The class given is cell-based, BV-2. As to conditions: read-out: Activity.

As for `C=C1CCC[C@H]2[C@](C)(C[C@@H]3C(=O)C=C(OC)[C@@H]3O)[C@@H](C)CC[C@]12C`, in the data set on BV-2 [1], the half-inhibitory concentration (IC50) is 28.3 µM. The inhibition at 40 µM in the data set on BV-2 [2] is greater than 50%. Moreover, the viability at 40 µM in data set [3] turned out to be 174%.
As for `C=C1CCC[C@H]2[C@](C=O)(Cc3cc(C(=O)OC)c(O)c(OC)c3O)[C@@H](C)CC[C@]12C`, the IC50 in the data set on BV-2 [1] is greater than 40 µM. In addition, in data set [3], the viability at 40 µM was determined as 106%.
Consider `C=C1CCC[C@H]2[C@](C)(Cc3c(O)c(OC)cc4ncoc34)[C@@H](C)CC[C@]12C`, for which, in the data set on BV-2 [1], the IC50 is greater than 40 µM. Moreover, the viability at 40 µM in data set [3] turned out to be 92.1%.
With `C=C1CCC[C@H]2[C@](CO)(Cc3cc(C(=O)OC)c(O)c(OC)c3O)[C@@H](C)CC[C@]12C`, the IC50 with BV-2 [1] is 24.4 µM. In the data set on BV-2 [2], the inhibition at 40 µM is greater than 50%. Moreover, the viability at 40 µM in data set [3] was found to be 160%.
Consider `C=C1CCC[C@H]2[C@](C)(C[C@H]3C(=O)C=C(OC)[C@@H]3O)[C@@H](C)CC[C@]12C`, for which, in the data set with BV-2 [1], the IC50 stood at 30.1 µM. Also, the inhibition at 40 µM with BV-2 [2] is greater than 50%. The viability at 40 µM in data set [3] came to 141%.
For `C=C1CCC[C@H]2[C@](CO)(Cc3cc(C(=O)OC)cc(OC)c3O)[C@H](C)CC[C@]12C`, in that order: 24.4 µM, greater than 50% and 171%.
For the compound `C=C1CCC[C@H]2[C@](C)(Cc3cc(C(=O)OC)ccc3O)[C@@H](C)CC[C@]12C`, in the data set with BV-2 [1], the IC50 is greater than 40 µM. Also, the viability at 40 µM in data set [3] worked out at 121%.
With `C=C1CCC[C@H]2[C@](C)(CC3=C(O)C(=O)C=C(OC)C3=O)[C@@H](C)CC[C@]12C` [ILIMAQUINONE], in the data set with BV-2 [1], the IC50 stood at 10.4 µM. Also, in the data set on BV-2 [2], the inhibition at 40 µM was greater than 50%. In data set [3], the viability at 40 µM was 95.7%.
Regarding `C=C1CCC[C@H]2[C@](C)(Cc3cc(C(=O)OC)cc(OC)c3O)[C@@H](C)CC[C@]12C` [POLYFIBROSPONGOL A], in the data set on BV-2 [1], the IC50 is greater than 40 µM. In addition, the viability at 40 µM in data set [3] was determined as 125%.
For `CNC(=N)NCCC[C@H](N)C(=O)O` [TILARGININE], in that order: 22.1 µM and 95.5%.
